Laboratory results published in article PMC4865845, “A human genome-wide loss-of-function screen identifies effective chikungunya antiviral drugs” (Nature Communications, 2016).

Test system: CHIKV
Format: cell-based, chikungunya virus

Substance “Hs_NRD1_1 (CAGGGTGAAGCCACTTCATTA; chemistry not given here)” has a Score_si3 of 1.32.

“Hs_NRD1_2 (AAGGCTTTCGATTGCCCGGAA; chemistry not given here)” was tested, and the Score_si2 was 1.41.

“Hs_NRD1_3 (CAAGCAATACCGATACATCAA; chemistry not given here)” gave a Score_si4 of 0.87.

“Hs_NUDT1_4 (CCGGGTTTCATCTGGAATTAA; chemistry not given here)” gave a Score_si2 of 1.96.

Substance “Hs_NUDT1_5 (CCGCGAGGTGGACACGGTCTA; chemistry not given here)” has a Score_si1 of 2.08.

With “Hs_ODZ3_1 (CCGGGCTGTGTCAAAGAATAA; chemistry not given here)” the Score_si1 was 1.47.

In the case of “Hs_ODZ3_2 (CCCAAATTTGATTTAACAGAA; chemistry not given here)”, the Score_si4 is reported as 0.82.

“Hs_ODZ3_4 (CACGAGGAAACTACAATTCCA; chemistry not given here)” gave a Score_si3 of 1.

“Hs_P4HB_2 (CTATTTCACAATCGAATTGAA; chemistry not given here)” was tested, and the Score_si3 was 1.09.

Work on “Hs_P4HB_5 (CAGGACGGTCATTGATTACAA; chemistry not given here)” yielded a Score_si2 of 1.15.

Substance “Hs_P4HB_6 (AAGATGAACTGTAATACGCAA; chemistry not given here)” has a Score_si1 of 1.38.

“Hs_PCBP1_2 (TAAGAGTGGAATGTTAATAAA; chemistry not given here)” gave a Score_si1 of 1.94.

With “Hs_PCBP1_3 (CACAACTTTATCATCCGCTAA; chemistry not given here)” the Score_si2 was 1.85.

“Hs_PCQAP_1 (CCGCATGATCAACAAGATCGA; chemistry not given here) [reference compound]” was tested, and the Score_si1 was -1.12.

With “Hs_PCQAP_10 (CAGCATCTAATTAAATTGCAT; chemistry not given here) [reference compound]” the Score_si3 was -0.74.

For “Hs_PD2_1 (ACCGAGGAAGAAATATACAAA; chemistry not given here)”, the Score_si4 was 1.16.

“Hs_PD2_2 (CACCATTATTGTGAGCAGCAA; chemistry not given here)” gave a Score_si1 of 1.77.

In the case of “Hs_PDLIM5_3 (AAGAGACGGTTTGGCATTTAT; chemistry not given here)”, the Score_si1 is reported as 1.17.

Work on “Hs_PDLIM5_5 (CAGCAGGGAAACGAACTCCGA; chemistry not given here)” yielded a Score_si2 of 1.07.

“Hs_PDLIM5_6 (TCCGATGTGCGCCCATTGTAA; chemistry not given here)” showed a Score_si3 of 0.87.

With “Hs_PEX19_1 (ATGGGTGGCTTCATGAATTAA; chemistry not given here)” the Score_si1 was 1.26.

Substance “Hs_PEX19_2 (TCCCTTGAGTATTTCAATGTA; chemistry not given here)” has a Score_si3 of 0.58.

“Hs_PEX19_3 (CCCATTCAAGATTGTGCCATA; chemistry not given here)” gave a Score_si4 of 0.41.

Work on “Hs_PEX19_4 (CTGGATCTTATGCAGCAGCTA; chemistry not given here)” yielded a Score_si2 of 0.89.

Substance “Hs_PGD_1 (TAGAAGTGTATTCCTAGGAAA; chemistry not given here)” has a Score_si1 of 3.09.

For “Hs_PHF10_3 (CGGACAGTTCCAGGAATATTA; chemistry not given here)”, the Score_si2 was 0.88.

With “Hs_PHF10_4 (TCCAGGGAAGACAGAAATCAA; chemistry not given here)” the Score_si3 was 0.57.

For “Hs_PHF10_5 (ATGGCAGTGTATGGAATGTAA; chemistry not given here)”, the Score_si1 was 2.93.

In the case of “Hs_PITRM1_1 (TAGGTTCTTCACGTACGGTAA; chemistry not given here) [reference compound]”, the Score_si1 is reported as -1.2.

“Hs_PITRM1_2 (CCGGTGAATTACGTGGGTGAA; chemistry not given here) [reference compound]” gave a Score_si4 of -0.68.

“Hs_PITRM1_3 (CAGCGTTGAAAGTTTCCGATA; chemistry not given here) [reference compound]” was tested, and the Score_si2 was -1.16.

“Hs_PMPCB_4 (TACATTTATAATAGGAGTCCA; chemistry not given here)” showed a Score_si4 of 0.83.

“Hs_POLDIP3_2 (CCGGCTCAAACTGGGAGTCAA; chemistry not given here)” gave a Score_si1 of 2.49.

With “Hs_POLR1A_1 (AAGGTTGATGACTACAGTCAA; chemistry not given here)” the Score_si1 was 1.93.

In the case of “Hs_POLR1A_2 (TCGGGAGGAATTAGAACAATA; chemistry not given here)”, the Score_si2 is reported as 1.23.

With “Hs_POU3F2_2 (AAGATGAAAGTTACCACTGAA; chemistry not given here)” the Score_si1 was 2.65.

“Hs_PP3856_1 (CTGGACAGTGGTGACCTGCTA; chemistry not given here)” gave a Score_si2 of 1.53.

“Hs_PP3856_2 (CTGGCTGGAGTCAGTCCTCAT; chemistry not given here)” showed a Score_si1 of 2.53.

Substance “Hs_PPIL2_1 (CAGGGACAGCCTATTTATACA; chemistry not given here)” has a Score_si4 of 0.92.

Substance “Hs_PPIL2_2 (AAGGAGGAGATCCGCATTGAT; chemistry not given here)” has a Score_si1 of 1.35.

Work on “Hs_PPIL2_3 (CACCAATTTGGACAAGTTCAA; chemistry not given here)” yielded a Score_si2 of 1.2.

“Hs_PPP1R8_6 (TACAAATAAAGATGCCCTAAA; chemistry not given here)” gave a Score_si2 of 0.7.

“Hs_PPP1R8_8 (AACCCTGAAGCTGTAAATGAA; chemistry not given here)” gave a Score_si3 of 0.62.

In the case of “Hs_PPP1R15A_3 (CAGGATCAGCCGAGGATGAAA; chemistry not given here)”, the Score_si3 is reported as 1.25.

In the case of “Hs_PRPF4B_2 (sense CACCCTTAAATCGTTATTAAT; chemistry not given here)”, the Score_si4 is reported as 0.63.

“Hs_PRPF4B_5 (sense TCGTCTGATGATAACCTTGAA; chemistry not given here)” gave a Score_si1 of 2.38.

“Hs_PRPF40A_2 (sense CTGGAAAGCCTTACTATTATA; chemistry not given here)” gave a Score_si1 of 2.41.

“Hs_PRSS15_2 (sense CAGCCTTATGTCGGCGTCTTT; chemistry not given here)” gave a Score_si2 of 1.66.

In the case of “Hs_PRSS15_3 (sense TAGAAGCTATTTAATGATTAA; chemistry not given here)”, the Score_si4 is reported as 1.21.

Work on “Hs_PRSS15_4 (sense CCGGGACATCATTGCCTTGAA; chemistry not given here)” yielded a Score_si1 of 1.74.

Substance “Hs_PSD3_1 (sense CTCCATTGTCTTACTAACAAA; chemistry not given here) [reference compound]” has a Score_si1 of -3.63.

“Hs_PSD3_2 (sense ACCAAACGTGTTTAAACTTAA; chemistry not given here) [reference compound]” was tested, and the Score_si4 was -0.52.

With “Hs_PTBP1_2 (sense ATGGTATGAGTGTAATCTAAA; chemistry not given here) [reference compound]” the Score_si1 was -1.35.

“Hs_PTBP1_3 (sense CGACATAATCTCTGTATTATA; chemistry not given here) [reference compound]” gave a Score_si3 of -0.58.

For “Hs_PTBP1_5 (sense CACGCACATTCCGTTGCCTTA; chemistry not given here) [reference compound]”, the Score_si2 was -1.23.

In the case of “Hs_PTBP1_18 (sense GCGCGTGAAGATCCTGTTCAA; chemistry not given here) [reference compound]”, the Score_si4 is reported as -0.53.

“Hs_PTPN4_3 (sense AGCACGTACCTTAGAACTCTA; chemistry not given here)” was tested, and the Score_si3 was 1.47.

With “Hs_PTPN6_5 (sense CCGGAACAAATGCGTCCCATA; chemistry not given here)” the Score_si4 was 1.05.

Substance “Hs_PTX3_2 (sense AAGAAAGAAACTCACACTTAA; chemistry not given here)” has a Score_si1 of 1.48.

“Hs_PTX3_3 (sense AAAGGGATTTGTATTAATTTA; chemistry not given here)” showed a Score_si3 of 1.09.

“Hs_RAB3D_1 (sense CAGGCCCTGTTTAGCTGTTTA; chemistry not given here)” gave a Score_si1 of 1.76.

With “Hs_RAB3D_3 (sense CTGGAACTATGGACCACATTA; chemistry not given here)” the Score_si4 was 0.77.

“Hs_RAB3D_4 (sense AAGCAAGTTCTTGCCCAATCA; chemistry not given here)” showed a Score_si2 of 1.56.

“Hs_RAB3D_5 (sense TCCGTGGTGCCTTCTAGCTTA; chemistry not given here)” gave a Score_si3 of 0.91.

For “Hs_RAD51L3_2 (sense CTCACTCTCTGTAAGCATATA; chemistry not given here)”, the Score_si3 was 0.7.

“Hs_RAD51L3_4 (sense CCCAGTAACGCCTGCTGTTTA; chemistry not given here)” showed a Score_si4 of 0.33.

Work on “Hs_RAD51L3_5 (sense CTGGAAGAGGTAGCTCAGAAA; chemistry not given here)” yielded a Score_si1 of 2.71.

“Hs_RARSL_3 (sense CACAGGAGTCTTCCTACAGTA; chemistry not given here) [reference compound]” gave a Score_si1 of -2.94.

Substance “Hs_RARSL_4 (sense CCAGCTTTCCAGAGTGTTGAA; chemistry not given here) [reference compound]” has a Score_si3 of -1.26.

With “Hs_RARSL_6 (sense TAGATCGAATGGACAAGTATA; chemistry not given here) [reference compound]” the Score_si2 was -1.49.

Substance “Hs_RASL11B_2 (sense ATGCTTTGGCTTAAACTGTAA; chemistry not given here)” has a Score_si1 of 2.53.

Work on “Hs_ROCK1_1 (sense ACGGTTAGAACAAGAGGTAAA; chemistry not given here)” yielded a Score_si4 of 0.5.

In the case of “Hs_ROCK1_3 (sense CAGATAAAGATCACACTGTTA; chemistry not given here)”, the Score_si3 is reported as 0.95.

Work on “Hs_ROCK1_9 (sense AACGGTTAGAACAAGAGGTAA; chemistry not given here)” yielded a Score_si1 of 1.18.

Substance “Hs_RORC_2 (sense TAGGATGTGCCGGGCCTACAA; chemistry not given here)” has a Score_si1 of 1.28.

Work on “Hs_RORC_3 (sense CCGGGCCTACAATGCTGACAA; chemistry not given here)” yielded a Score_si4 of 0.9.

“Hs_RPS6KC1_1 (sense CCGGGTTGTTTCACGAAGAAA; chemistry not given here) [reference compound]” gave a Score_si2 of -1.09.

Work on “Hs_RPS6KC1_3 (sense ACCCTGATGCTGTATAATGTA; chemistry not given here) [reference compound]” yielded a Score_si1 of -2.87.
